According to ChEMBL document CHEMBL1201862, “PubChem BioAssay data set” (2004):
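Exposure lasted 48 hours, with cells grown in 96-well plates and compounds tested at five concentrations. GI50 is the concentration that inhibits growth by half.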 Active and inactive are the calls of the source. Rule as the data show it: active = GI50 up to about 1.1 µM and inactive = higher.

Tests used:
Assay in all cases: growth of human tumour cells (NCI), 48 h
SF-268 = tested on: SF-268
TK-10 = tested on: TK-10
OVCAR-3 = tested on: OVCAR-3
OVCAR-8 = tested on: OVCAR-8
Hs-578T = tested on: Hs-578T
PC-3 = tested on: PC-3
SNB-19 = tested on: SNB-19
IGROV-1 = tested on: IGROV-1
MCF7 = tested on: MCF7
NCI-H460 = tested on: NCI-H460
DU-145 = tested on: DU-145
SW-620 = tested on: SW-620
ACHN = tested on: ACHN
SK-OV-3 = tested on: SK-OV-3
RPMI-8226 = tested on: RPMI-8226
SF-539 = tested on: SF-539
KM12 = tested on: KM12
SK-MEL-28 = tested on: SK-MEL-28
NCI/ADR-RES = tested on: NCI/ADR-RES

| Structure (SMILES) | GI50 (SF-268) | GI50 (TK-10) | GI50 (OVCAR-3) | GI50 (OVCAR-8) | GI50 (Hs-578T) | GI50 (PC-3) | GI50 (SNB-19) | GI50 (IGROV-1) | GI50 (MCF7) | GI50 (NCI-H460) | GI50 (DU-145) | GI50 (SW-620) | GI50 (ACHN) | GI50 (SK-OV-3) | GI50 (RPMI-8226) | GI50 (SF-539) | GI50 (KM12) | GI50 (SK-MEL-28) | GI50 (NCI/ADR-RES) |
| --- | --- | --- | --- | --- | --- | --- | --- | --- | --- | --- | --- | --- | --- | --- | --- | --- | --- | --- | --- |
| COc1ccc2[nH]c(C(=O)N3CC(CCl)c4ccc(N)cc43)cc2c1 (stereo not drawn) | 0.0491 µM (active) | 0.37 µM (active) | 0.27 µM (active) | 0.223 µM (active) | 0.335 µM (active) | 0.233 µM (active) | 0.586 µM (active) | 0.175 µM (active) | 0.0689 µM (active) | 0.0867 µM (active) | 0.0551 µM (active) | 0.173 µM (active) | 0.0728 µM (active) | 0.349 µM (active) | 0.361 µM (active) | 0.211 µM (active) | 0.156 µM (active) | 0.368 µM (active) | 0.0912 µM (active) |
| O=C(/C=C(\O)c1cc(-c2ccccc2)n(-c2ccccc2)n1)c1ccccc1 | 24.2 µM (inactive) | 4.46 µM (inactive) | 4.84 µM (inactive) | 3.2 µM (inactive) | 14.7 µM (inactive) | 9.29 µM (inactive) | 5.97 µM (inactive) | 2.51 µM (inactive) | 9.73 µM (inactive) | 3.53 µM (inactive) | 3.61 µM (inactive) | 4.62 µM (inactive) | 3.35 µM (inactive) | 3.04 µM (inactive) | 1.8 µM (inactive) | 10.9 µM (inactive) | 4.48 µM (inactive) | 0.631 µM (active) | 5.38 µM (inactive) |
| CC1CC/C(=C\c2ccc(F)cc2)C2=C1C(c1ccc(F)cc1)N1C(=O)CSC1=N2 (stereo not drawn) | > 100 µM (inactive) | > 100 µM (inactive) | > 100 µM (inactive) | 69.7 µM (inactive) | > 100 µM (inactive) | 25.6 µM (inactive) | > 100 µM (inactive) | 9.23 µM (inactive) | 55.1 µM (inactive) | 30.8 µM (inactive) | > 100 µM (inactive) | > 100 µM (inactive) | > 100 µM (inactive) | > 100 µM (inactive) | 15.5 µM (inactive) | > 100 µM (inactive) | 35.7 µM (inactive) | > 100 µM (inactive) | 49.9 µM (inactive) |
| Cc1nn(-c2ccccc2)c(C)c1/C=N/N=C1\SCC(=O)N1c1ccccc1 | 28.4 µM (inactive) | 26.2 µM (inactive) | 24.9 µM (inactive) | 21.7 µM (inactive) | 37.2 µM (inactive) | 19.2 µM (inactive) | 43.1 µM (inactive) | 32.3 µM (inactive) | 27.4 µM (inactive) | 18.3 µM (inactive) | 31.8 µM (inactive) | 33.9 µM (inactive) | 17.3 µM (inactive) | 29.8 µM (inactive) | 13.4 µM (inactive) | 22.9 µM (inactive) | 25 µM (inactive) | 22.3 µM (inactive) | 18.5 µM (inactive) |
| C=C1C(=O)OC2CC(C)C(C(O)CC(C)O)=CCC12 (stereo not drawn) | 14.3 µM (inactive) | 9.14 µM (inactive) | 9.62 µM (inactive) | 17.1 µM (inactive) | 20.9 µM (inactive) | 21.6 µM (inactive) | 28.4 µM (inactive) | 16.8 µM (inactive) | 13.9 µM (inactive) | 18.9 µM (inactive) | 14.2 µM (inactive) | 10.4 µM (inactive) | 4.39 µM (inactive) | 36.7 µM (inactive) | 6.67 µM (inactive) | 15 µM (inactive) | 18.6 µM (inactive) | 9.62 µM (inactive) | 17 µM (inactive) |
| O=C1CSC(c2cccc(Cl)c2)N1c1ccc(-c2ccc(-n3c(-c4ccccc4)nc4ccccc4c3=O)cc2)cc1 (stereo not drawn) | 54.1 µM (inactive) | 32.6 µM (inactive) | 36 µM (inactive) | 46.1 µM (inactive) | > 100 µM (inactive) | 29.8 µM (inactive) | > 100 µM (inactive) | 77.4 µM (inactive) | 30.8 µM (inactive) | 32.9 µM (inactive) | 53.7 µM (inactive) | > 100 µM (inactive) | 45.8 µM (inactive) | > 100 µM (inactive) | 42.8 µM (inactive) | 72.3 µM (inactive) | 22.3 µM (inactive) | 75.3 µM (inactive) | 36.9 µM (inactive) |
| CO[C@@H]1[C@@H](OC2OC(C)C(OC3CC(C)(O)C(OC(=O)CC(C)C)C(C)O3)C(N(C)C)C2O)[C@@H](CC=O)C[C@@H](C)C(=O)/C=C/C2O[C@H]2C[C@@H](C)OC(=O)C[C@H]1OC(C)=O (stereo partly drawn) | 79.1 µM (inactive) | 24.9 µM (inactive) | 14.3 µM (inactive) | 22.6 µM (inactive) | 37.4 µM (inactive) | 15.5 µM (inactive) | 22 µM (inactive) | 10.8 µM (inactive) | 16.3 µM (inactive) | 16.8 µM (inactive) | 14.6 µM (inactive) | 17.5 µM (inactive) | 18.7 µM (inactive) | 39.2 µM (inactive) | 17.7 µM (inactive) | 19.6 µM (inactive) | 17.3 µM (inactive) | 18.5 µM (inactive) | 31 µM (inactive) |
